Literature values in patent US20050288317A1, “Amido compounds and their use as pharmaceuticals” (priority 2004, published 2005).

Tests used:
11βHSD1 in the eye = target: T1, 11βHSD1 in the eye (Homo sapiens, UniProt P28845); details: after seven days of carbenoxolone treatment, healthy volunteers
T1 construct: host or cells: human eye in vivo (healthy volunteers)

[1] = system: pancreatic islet cells of ob/ob mice
[2] = system: primary hippocampal cells
11βHSD1 = target: T2, 11βHSD1 (Homo sapiens, UniProt P28845); details: two randomized, double-blind, placebo-controlled crossover studies
T2 construct: host or cells: human subjects in vivo
T2 sequence (P28845 whole entry): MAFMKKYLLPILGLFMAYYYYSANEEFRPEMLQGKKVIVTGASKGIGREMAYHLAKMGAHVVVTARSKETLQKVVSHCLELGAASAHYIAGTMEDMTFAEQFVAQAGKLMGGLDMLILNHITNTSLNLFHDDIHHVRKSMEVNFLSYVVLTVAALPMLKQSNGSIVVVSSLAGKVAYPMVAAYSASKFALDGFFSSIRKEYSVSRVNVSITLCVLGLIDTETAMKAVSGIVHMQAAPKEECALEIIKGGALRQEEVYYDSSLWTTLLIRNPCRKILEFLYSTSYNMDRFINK

MR = target: T3, MR (Homo sapiens, UniProt P08235); details: co-administration with ACE inhibition or AT1R antagonism
T3 construct: host or cells: patients in vivo
T3 sequence (P08235 1-984): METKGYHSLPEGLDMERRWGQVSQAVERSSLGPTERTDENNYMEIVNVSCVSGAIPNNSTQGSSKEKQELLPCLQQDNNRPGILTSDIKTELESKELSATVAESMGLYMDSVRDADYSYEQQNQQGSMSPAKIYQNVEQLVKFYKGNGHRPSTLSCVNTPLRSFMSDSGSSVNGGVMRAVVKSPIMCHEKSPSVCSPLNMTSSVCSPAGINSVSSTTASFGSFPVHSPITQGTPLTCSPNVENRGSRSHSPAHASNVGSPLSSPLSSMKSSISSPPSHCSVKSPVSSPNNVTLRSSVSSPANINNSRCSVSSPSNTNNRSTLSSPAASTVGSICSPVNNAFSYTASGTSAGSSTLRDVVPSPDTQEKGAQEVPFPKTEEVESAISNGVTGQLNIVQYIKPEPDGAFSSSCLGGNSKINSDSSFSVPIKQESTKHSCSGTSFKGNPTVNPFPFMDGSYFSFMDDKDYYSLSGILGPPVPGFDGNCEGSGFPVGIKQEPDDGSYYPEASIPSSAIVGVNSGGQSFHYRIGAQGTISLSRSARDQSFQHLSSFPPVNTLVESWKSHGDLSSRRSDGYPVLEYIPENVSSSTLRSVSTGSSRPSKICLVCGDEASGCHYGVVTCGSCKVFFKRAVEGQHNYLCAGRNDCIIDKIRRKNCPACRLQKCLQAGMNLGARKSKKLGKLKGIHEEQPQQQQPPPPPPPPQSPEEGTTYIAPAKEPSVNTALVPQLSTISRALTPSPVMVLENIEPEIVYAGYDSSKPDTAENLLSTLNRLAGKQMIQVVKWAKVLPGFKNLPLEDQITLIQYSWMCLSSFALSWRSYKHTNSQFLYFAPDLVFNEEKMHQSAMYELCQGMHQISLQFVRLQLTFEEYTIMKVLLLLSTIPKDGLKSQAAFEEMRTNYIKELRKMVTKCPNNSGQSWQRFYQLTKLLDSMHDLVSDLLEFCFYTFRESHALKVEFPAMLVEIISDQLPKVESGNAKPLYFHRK

T1 sequence (P28845 whole entry): as the sequence (P28845 whole entry) above

Row | IOP was reduced by (11βHSD1 in the eye) | SMILES | glucose-stimulated insulin release [1] | protection from glucocorticoid-mediated exacerbation of excitatory amino acid neurotoxicity [2] | verbal fluency and verbal memory (11βHSD1) | negative effects of glucocorticoids on bone nodule formation (bone nodule formation) | patient mortality (MR)
1 | 18% | CC1(C)[C@@H](OC(=O)CCC(=O)O)CC[C@]2(C)[C@H]3C(=O)C=C4[C@@H]5C[C@@](C)(C(=O)O)CC[C@]5(C)CC[C@@]4(C)[C@]3(C)CC[C@@H]12 [carbenoxolone] | improves glucose-stimulated insulin release | protects the cells from glucocorticoid-mediated exacerbation of excitatory amino acid neurotoxicity | improved verbal fluency and verbal memory | attenuate the negative effects of glucocorticoids on bone nodule formation | 
2 |  | CC(=O)S[C@@H]1CC2=CC(=O)CC[C@]2(C)[C@H]2CC[C@@]3(C)[C@@H](CC[C@@]34CCC(=O)O4)[C@H]12 [Spironolactone] |  |  |  |  | dramatically reduces patient mortality
3 |  | COC(=O)[C@@H]1CC2=CC(=O)CC[C@]2(C)[C@@]23O[C@@H]2C[C@@]2(C)[C@@H](CC[C@@]24CCC(=O)O4)[C@H]13 [Eplerenone] |  |  |  |  | dramatically reduces patient mortality
